Laboratory results reported in ChEMBL document CHEMBL4270540, “Collagen Prolyl 4-Hydroxylase as a Therapeutic Target” (J Med Chem, 2018).

Experiments:
[1] = Inhibition of collagen prolyl 4-hydroxylase (unknown origin); design: species or system Homo sapiens
[2] = Inhibition of chicken collagen prolyl 4-hydroxylase; design: species or system Gallus gallus
[3] = Inhibition of collagen prolyl 4-hydroxylase (unknown origin) using 2-ketoglutarate as co-factor assessed as formation of [14C]succinate by ion-exchnage chromatographic method; design: species or system Homo sapiens

IC50 [3]	Structure (SMILES)	also measured
–	COc1ccc(S(=O)(=O)NC(=O)c2ccc(C(=O)O)nc2)cc1	IC50 [1]: 1 µM
–	O=C(O)c1ncc2ccccc2c1O	IC50 [2]: 0.19 µM
–	O=C(O)c1nnc2ccccc2c1O	IC50 [2]: 0.02 µM
38.2 µM	C[C@H](NC(=O)C(=O)O)C(=O)O	–
621 µM	C[C@@H](NC(=O)C(=O)O)C(=O)O	–
90.7 µM	CC(NC(=O)C(=O)O)C(=O)O (racemic)	–
2.89 µM	O=C(O)CNC(=O)C(=O)O [N-OXALYLGLYCINE]	–
–	O=C(O)c1ccc(C(=O)O)nc1 [PYRIDINE-2,5-DICARBOXYLIC ACID]	IC50 [1]: 5.5 µM
